In patent US9757477B2, “Imaging brown adipose tissue with curcumin derivatives” (The General Hospital Corporation, priority 2013, dated 2017):
Where “and” joins values, the source holds several entries; their conditions need not be identical. Identical values can stand only once. Entries after “also recorded” stand apart in the source; their conditions may differ.

Assays:
interscapular BAT [1] = assay: Top-down whole-organism NIR fluorescence screening of dyes (ROI1/ROI2 contrast); type: in vivo, nude mice; details: for Ratio No 1 (ROI1/ROI2 average fluorescence intensity) / Ratio No 2 (ROI1/ROI2 average fluorescence intensity) / Ratio No 3 (ROI1/ROI2 average fluorescence intensity) / Ratio AVERAGE (mean ratio ROI1/ROI2): nude mice, one hour post-injection; for Ratio No 1 (ROI1/ROI2 average fluorescence intensity) / Ratio No 2 (ROI1/ROI2 average fluorescence intensity) / Ratio No 3 (ROI1/ROI2 average fluorescence intensity): 10 μg/mouse i.v.; for Ratio No 1 (ROI1/ROI2 average fluorescence intensity): first excitation/emission filter pair; for Ratio No 2 (ROI1/ROI2 average fluorescence intensity): second excitation/emission filter pair; for Ratio No 3 (ROI1/ROI2 average fluorescence intensity): third excitation/emission filter pair; for Ratio AVERAGE (mean ratio ROI1/ROI2): i.v., mean of three filter pairs, hit threshold >1.10; for visible contrast around the interscapular BAT area: in vivo NIR images
Protocol: 38 fluorescent dyes from commercial resources and from the inventors' laboratory were screened. Dyes with excitation range of 550-745 nm, emission range of 600-840 nm, and with molecular weight of less than 700 Da (except Cy5.5) (representative dyes are listed in FIG. 1d and the full list is shown in Table 2). Their hydrophobicities were not determined. The library was screened by intravenous tail injection of compounds into nude mice (10μg/mouse). Each dye was imaged with three optimized excitation/emission filter-pairs, and images at one hour after i.v. injection were acquired.
Top-down whole organism screening was performed as follows. Nude mice (nu/nu COX7) were purchased from Massachusetts General Hospital and Balb/c mice were from Jackson Laboratory. All animal experimental procedures were approved by the Institutional Animal Care and Use Committee (IACUC) at Massachusetts General Hospital. Dye stock solutions were prepared in DMSO. The final injection solution (0.1 mg/ml) was freshly prepared in a mixed solution of 20% DMSO, 20% Cremophor EL and 60% saline. Nude mice (n=5) were injected with a 100 μL dye solution via tail vein. For each imaging session, mice were anesthetized with a mixture of oxygen and isoflurane for 5 minutes, and then positioned into the imaging chamber of IVIS® Spectrum in vivo pre-clinical imaging system. Images were acquired at one-hour post-injection using sequence imaging with three excitation/emission filter pairs for each dye.
Hits selection was performed as follows. Hits from cell- or protein-based screening are usually selected by setting certain threshold. In the case of the top-down imaging screening, two methods were used (threshold and visible contrast) to select hits. First, three images obtained with three excitation/emission pairs were selected for each dye. These ex/em pairs were selected from the closest excitation and emission wavelengths of the tested dyes. For instance, 605/660 nm, 605/680 nm, 640/680 nm were selected for image acquisition of Nile blue (625/660 nm). The quantification of contrast for each image was calculated as a ratio of two ROIs (region of interest). ROI1 reflected the average signal from interscapular BAT and ROI2 was the average signal of the area that included BAT and white adipose tissue (WAT) around the interscapular site (FIG. 1b, left). The averaged fluorescent signal of ROI was used instead of the total signal, because the total signal depends on the area of ROI, whereas the averaged signal reflects the density of signal. The ratio of ROI1/ROI2 could reflect the signal/noise ratio of the tested probe, and could also reflect the selectivity of the probe for BAT over WAT. For each dye, three ROI1/ROI2 ratios obtained with the three filter pairs were calculated. The mean of the ratios was used as the threshold. If the mean ratio was >1.10, the dye was selected as a potential positive hit (FIG. 1c). Since the contrast of a dye in the top-down screening is in the visible range, the visible contrast around the interscapular BAT area was also tested for the hits with the mean ratio of >1.10. If both mean ratio and the visible contrast were positive, then the hit was subjected to re-testing procedure to validate its reliability as described below.
Although CRANAD-2 and CRANAD-3 were able to provide certain contrast for BAT in vivo, their excitation and emission wavelengths were still shorter than required for an ideal NIR imaging probe (both excitation and emission >640 nm). […] To seek better probes, a sub-library was synthesized based on the structures of the lead probes CRANAD-2 and -3. CRANAD-6, -19, -22, -24, -26, -32 and -43 were synthesized and tested (images and chemical structures, excitation and emission spectra are shown in FIG. 9 a-e). […] However, the ROI1/ROI2 ratio of CRANAD-22 was not improved (FIG. 9c).

interscapular BAT [2] = assay: Re-testing of hits with stepwise dissection and NIR imaging; type: in vivo, mice; details: stepwise dissection
Protocol: Like protein/cell-based screening, hit re-testing experiments were conducted to validate the reliability of this approach. CRANAD-2, -3, LDS 722 and Rhodamine 640 were subjected to re-testing by repeating the above imaging procedure. Images were acquired one hour after probe injection.
Next, stepwise dissection and imaging were performed to track the source of the fluorescence contrast at the interscapular site. Skin and the thin WAT layer that covers BAT were first removed, and then BAT was dissected, and NIR images were captured at each step. […] The signal contribution from BAT (R(BAT)) was roughly estimated using the ratio of fluorescence signals acquired after (F(BAT)) and before (F(intact)) the first step dissection of skin and WAT.

[3] = Excitation and emission wavelengths of BAT imaging agents; type: physicochemical
Protocol: In some embodiments, the methods include irradiating the mammal with light of the appropriate wavelength to excite the BAT imaging agent, and detecting emissions therefrom.
Fluorescent dyes were purchased from Exciton Inc. (Dayton, Ohio) and Invitrogen. The reagents used for the synthesis were purchased from Aldrich and used without further purification. Column chromatography was performed on silica gel (SiliCycle Inc., 60 Å, […]) slurry packed into glass columns. 1H, 13C NMR spectra were recorded at 500 MHz and 125 MHz respectively, and reported in ppm downfield from tetramethylsilane. Fluorescence studies were carried out using a F-4500 Fluorescence Spectrophotometer (Hitachi). Mass spectra were obtained at Harvard University, Department of Chemistry Instrumentation Facility. Microscopic images were acquired with Nikon Eclipse 50i microscope. In vivo NIR imaging was performed using the IVIS® Spectrum animal imaging system (Caliper LifeSciences, Perkin Elmer, Hopkinton, Mass.), and data analysis was conducted using LivingImage® 4.2.1 software.

Compound	Ratio No 1 (ROI1/ROI2 average fluorescence intensity) (interscapular BAT [1])	Ratio No 2 (ROI1/ROI2 average fluorescence intensity) (interscapular BAT [1])	Ratio No 3 (ROI1/ROI2 average fluorescence intensity) (interscapular BAT [1])	Ratio AVERAGE (mean ratio ROI1/ROI2) (interscapular BAT [1])	visible contrast around the interscapular BAT area (interscapular BAT [1])	fluorescence signal from BAT (before vs after BAT removal) (interscapular BAT [2])	Emission λ [3]	Excitation λ [3]	ROI1/ROI2 ratio compared with lead probe (interscapular BAT [1]; sub-library probes, compared with CRANAD-2)	selectivity for BAT (over WAT) (interscapular BAT [2])
CN1/C(=C/C=C2\CCCC(/C=C/C3=[N+](C)c4ccc5ccccc5c4C3(C)C)=C2Cl)C(C)(C)c2c1ccc1ccccc21.Cc1ccc(S(=O)(=O)[O-])cc1 [IR813]	1.08E+00	9.91E−01	1.08E+00	1.05E+00						
CC[n+]1ccc(/C=C/C=C/c2ccc(N(C)C)cc2)c2ccccc21.[O-][Cl+3]([O-])([O-])[O-] [LDS798]	1.00E+00	1.00E+00	9.88E−01	9.98E−01						
CC[n+]1ccc(C=CC=Cc2ccc(N(C)C)cc2)cc1.[O-][Cl+3]([O-])([O-])[O-] [LDS722]	1.15E+00	1.14E+00	1.08E+00	1.13 and 1.13E+00	weak contrast and no clear triangular contours	no significant fluorescent signal was from BAT				
Cy5.5	1.07E+00	1.07E+00	1.06E+00	1.07E+00						
O=C(O)c1ccccc1C1=c2cc3c4c(c2Oc2c1cc1c5c2CCCN5CCC1)CCC[N+]=4CCC3.[Cl-] [Rhodamine640]	1.15E+00	1.15E+00	1.15E+00	1.15 and 1.15E+00	weak contrast and no clear triangular contours	no significant signals were from BAT				
CN1C(=CC=CC=CC=CC2=[N+](C)c3ccccc3C2(C)C)C(C)(C)c2ccccc21.[I-] [HITC]	1.07E+00	1.02E+00	1.06E+00	1.05E+00						
CN1C(=CC=CC=CC2=[N+](C)c3ccccc3C2(C)C)C(C)(C)c2ccccc21.[I-] [HIDC]	1.01E+00	1.01E+00	1.02E+00	1.01E+00						
CCN=c1cc2oc3c4c5c(cc3nc-2c2ccccc12)CCCN5CCC4 [OX750]	1.09E+00	1.09E+00	1.04E+00	1.07E+00						
F[B-]1(F)OC(/C=C/c2c(-c3ccccc3)[nH]c3ccccc23)=CC(/C=C/c2c(-c3ccccc3)[nH]c3ccccc23)=[O+]1 [CRANAD-26]							637 nm	587 nm		
CCN1/C(=C/C=C/C=C/C=C/c2oc3ccccc3[n+]2CC)Oc2ccccc21.[I-] [DOTC]	9.48E−01	9.44E−01	9.52E−01	9.48E−01						
CCN1/C(=C/C=C/C=C/c2oc3ccccc3[n+]2CC)Oc2ccccc21.[I-] [DODC]	1.08E+00	1.09E+00	1.10E+00	1.09E+00						
CN(C)c1ccc(/C=C/C=C/C2=[N+](C)c3ccccc3C2(C)C)cc1.[O-][Cl+3]([O-])([O-])[O-] [LDS730]	1.03E+00	1.08E+00	1.09E+00	1.07E+00						
CC1(C)C(/C=C/C=C/C=C/C=C2\N(CCCCS(=O)(=O)[O-])c3ccc4ccccc4c3C2(C)C)=[N+](CCCCS(=O)(=O)[O-])c2ccc3ccccc3c21.[Na+] [IR125]	8.65E−01	9.76E−01	8.49E−01	8.97E−01						
CN(C)c1ccc(/C=C/C2=CC(/C=C/c3ccc(N(C)C)c4ccccc34)=[O+][B-](F)(F)O2)c2ccccc12 [CRANAD-6]							750 nm	620 nm		
N=c1cc2oc3cc(N)ccc3nc-2c2ccccc12 [Cresyl Violet]	9.56E−01	9.72E−01	1.02E+00	9.81E−01						
CC[n+]1ccccc1/C=C/C=C/c1ccc(N(C)C)cc1.[O-][Cl+3]([O-])([O-])[O-] [LDS698]	1.03E+00	1.06E+00	1.04E+00	1.04E+00						
CCN(CC)c1ccc2c(-c3ccccc3C(C)=O)c3ccc(=[N+](CC)CC)cc-3oc2c1 [RhodamineB]	1.01E+00	1.01E+00	9.54E−01	9.90E−01						
CN(C)c1ccc(/C=C/C=C/C2=CC(/C=C/C=C/c3ccc(N(C)C)cc3)=[O+][B-](F)(F)O2)cc1 [CRANAD-43]					best contrast		700 nm	640 nm	higher	not significantly increased; also recorded: poor selectivity
CC1=C(C)C(C)=[N+]2C1=C(C#N)c1c(C)c(C)c(C)n1[B-]2(F)F [Pyromethene650]	1.09E+00	1.07E+00	1.08E+00	1.08E+00						
CC[n+]1c(/C=C/C=C/c2ccc(N(C)C)cc2)ccc2cc(N(C)C)ccc21.[O-][Cl+3]([O-])([O-])[O-] [LDS751]	1.07E+00	1.05E+00	1.11E+00	1.08E+00						
Sulforhodamine	8.51E−01	8.86E−01	9.21E−01	8.86E−01						
